According to patent US6916802B2, “Amino ceramide-like compounds and therapeutic methods of use” (Genzyme Corporation, priority 2002, dated 2005):
Values joined by “and” are separate entries in the source; they are usually repeats but may differ in a detail not shown here. Equal values may be shown once. Marks after values point to notes of the source that are not given here.

Experiments:
MDCK cells [1] = assay: MDCK cell growth (cellular protein per dish); format: cell-based, canine; settings: duplicate dishes
Protocol: For the experiments with labeled thymidine, each 8.5 cm dish contained 500,000 Madin-Darby canine kidney (MDCK) cells in 8 ml of Dulbecco modified essential supplemented medium. […] The control cells were also incubated in the presence of BSA. The cells were washed with phosphate/saline and trichloroacetic acid, then scraped off the dishes, dissolved in alkali, and analyzed for protein and DNA incorporated tritium. [Methyl-^3H]thymidine (10 μCi) was added 4 h prior to harvesting.

Acid SMase = assay: Acid sphingomyelinase of MDCK cells; format: biochemical, canine
Protocol: Acid and neutral SMase assays were based on the procedures of Gatt et al. (Gatt, S. et al., “Assay of Enzymes of Lipid Metabolism With Colored and Fluorescent Derivatives of Natural Lipids,” Meth. Enzymol., 72:351-375 (1981)), using liposomes containing NBD-SM dispersed like the labeled ceramide (10 μM substrate and 30 μM lecithin). The assay medium for the neutral enzyme also contained 50 mM Tris-Cl^− (pH 7.4), 25 mM KCl, 5 mM MgCl2 and 0.29 mg of MDCK cell protein in a total volume of 0.25 ml. Incubation was at 37° C. for 30 min in the ultrasonic bath, then the fluorescent product, NBD-ceramide, was isolated by partitioning the assay mixture with 0.45 ml 2-propanol, 1.5 ml heptane, and 0.2 ml water. After centrifugation, a trace of contaminating NBD-SM was removed from 0.9 ml of the upper layer by washing with 0.35 ml water. The upper layer was analyzed with a fluorometer (460 nm excitation, 515 nm emission).
[…] The resultant ceramide was determined as above.

Ceramide synthase = Ceramide synthase of MDCK homogenate; format: biochemical, canine
Protocol: Ceramide synthase was assayed with 1 μM [3-^3H]sphingosine (70,000 cpm, repurified by column chromatography), 0.2 mM stearoyl-CoA, 0.5 mM dithiothreitol, and ˜300 μg of MDCK homogenate protein in 25 mM phosphate-K^+ buffer, pH 7.4, in a total volume of 0.2 ml. The incubation (for 30 min) and TLC were carried out as above and the ceramide band was counted.

neutral ceramidase = assay: Neutral ceramidase of MDCK cell homogenate; format: biochemical, canine
Protocol: (§1) Acid and neutral ceramidases were assayed under conditions like those above, but the medium contained 110 μM [1-^14C]decanoyl sphingosine (10^5 cpm) in 340 μM dioleoylphosphatidylcholine liposomes and 0.34 mg of MDCK cellular protein homogenate. […] After 60 min in the ultrasonic bath, 3 ml of C-M 2:1, carrier decanoic acid, and 0.6 ml of 0.9% saline were added and the lipids in the lower layer were separated by TLC with C-HOAc 9:1. The liberated decanoic acid was scraped off the glass plate and counted.

[2] = system: HT-29 colon adenocarcinoma cells; assay: Tumor cell growth in vitro (sulforhodamine B), HT-29; format: cell-based, human; settings: rounded off to one digit, read-out: Inhibition of tumor cell growth in vitro, IC50
Protocol: (§2) Growth of cell lines. Comparisons of different inhibitors with regard to suppression of human cancer cell growth were made by the University of Michigan Cancer Center in vitro Drug Evaluation Core Laboratory. MCF-7 breast carcinoma cells, HT-29 colon adenocarcinoma cells, H-460 lung large cell carcinoma cells, and 9L brain gliosarcoma cells were grown in RPMI 1640 medium with 5% fetal bovine serum, 2 mM glutamine, 50 units/ml of penicillin, […] of streptomycin, and 0.1 mg/ml of neomycin. UMSCC-10A head and neck squamous carcinoma cells were grown in minimal essential medium with Earle salts and the same supplements. Medium components were from Sigma Chemical Co. Cells were plated in 96-well microtiter plates (1000 cells/well for H-460 and 9L cells, and 2000 cells/well for the other lines), and the test compounds were added 1 day later. The stock inhibitor solutions, 2 mM in 2 mM BSA, were diluted with different amounts of additional 2 mM BSA, then each solution was diluted 500-fold with growth medium to obtain the final concentrations indicated in the Figures and Tables.
(§3) Five days after plating the H-460 and 9L cells, or 6 days for the other lines, cell growth was evaluated by staining the adhering cells with sulforhodamine B and measuring the absorbance at 520 nm (Skehan, P. et al., “New Colorimetric Cytotoxicity Assay for Anticancer-Drug Screening,” J. Natl. Cancer Inst., 82:1107-1112 (1990)). The absorbance of the treated cultures is reported as percent of that of control cultures, to provide an estimate of the fraction of the cells that survived, or of inhibition of growth rate.

[3] = system: MCF-7 breast carcinoma cells; assay: Tumor cell growth in vitro (sulforhodamine B), MCF-7; format: cell-based, human; settings: rounded off to one digit, read-out: Inhibition of tumor cell growth in vitro, IC50
Protocol: as §2, §3

MDCK cells [4] = assay: Lipid changes in MDCK cells (GlcCer, ceramide, diacylglycerol); format: cell-based, canine; settings: 24 h
acid ceramidase = assay: Acid ceramidase of MDCK cell homogenate; format: biochemical, canine
Protocol: as §1

[5] = system: 9L brain gliosarcoma cells; assay: Tumor cell growth in vitro (sulforhodamine B), 9L; format: cell-based; settings: for growth, % of control growth: 9L cells; for IC50: 9L, rounded off to one digit, read-out: Inhibition of tumor cell growth in vitro, IC50
How it was run: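 Cells in RPMI 1640 + 5% FBS, plated 1000/well (H-460, 9L) or 2000/well (MCF-7); compounds added day 1 from 2 mM BSA stocks diluted 500-fold in medium. Growth read by sulforhodamine B staining, A520, at day 5 (H-460, 9L) or day 6 (MCF-7), as percent of control.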

Compound	Protein (MDCK cells [1]; 0.4 μM in growth medium)	Protein (MDCK cells [1]; 4 μM in growth medium)	Sphingomyelinase pH 4.5, enzyme activity (% of control) (Acid SMase; 5 μM)	Sphingomyelinase pH 4.5, enzyme activity (% of control) (Acid SMase; 50 μM)	Ceramide Synthase, enzyme activity (% of control) (Ceramide synthase; 5 μM)	Ceramide Synthase, enzyme activity (% of control) (Ceramide synthase; 50 μM)	Ceramidase pH 7.4, enzyme activity (% of control) (neutral ceramidase; 5 μM)	Ceramidase pH 7.4, enzyme activity (% of control) (neutral ceramidase; 50 μM)	IC50 [2]	IC50 [3]	ceramide concentration, TLC densitometry (MDCK cells [4]; 0.5 μM)	ceramide concentration, TLC densitometry (MDCK cells [4]; 1 μM)	ceramide concentration, TLC densitometry (MDCK cells [4]; 2 μM)	ceramide concentration, TLC densitometry (MDCK cells [4]; 4 μM)	Ceramidase pH 4.5, enzyme activity (% of control) (acid ceramidase; 5 μM)	Ceramidase pH 4.5, enzyme activity (% of control) (acid ceramidase; 50 μM)	growth, % of control growth ([5]; 2 μM inhibitor)	growth, % of control growth ([5]; 3 μM inhibitor)	IC50 [5]	ceramide concentration, TLC densitometry, compared with BML-130 (MDCK cells [4]; various concentrations)
CCCCCCCCCCCCCCCC(=O)NC(CN1CCCC1)C(O)c1ccccc1 (racemic) [BML-130]	544 μg/dish and 538 μg/dish	160 μg/dish and 268 μg/dish	109 ± 1 % of control	114 ± 2 % of control	108 ± 10 % of control	106 ± 29 % of control	100 ± 15 % of control	100 ± 15 % of control	2 µM	2 µM	1.0 nmol/mg protein	1.1 nmol/mg protein	1.5 nmol/mg protein	3.3 nmol/mg protein	107 ± 11 % of control	160 ± 21^a % of control	93%	5%	2 µM	–
CCCCCCCCCCCCCCCC(=O)NC(CN1CCCC1)C(O)c1ccccc1 (racemic) [BML-129]	538 μg/dish and 500 μg/dish	396 μg/dish and 311 μg/dish	108 ± 4 % of control	97 ± 3 % of control	97 ± 0 % of control	102 ± 1 % of control	100 ± 0 % of control	99 ± 2 % of control	2 µM	3 µM	–	–	–	–	108 ± 8 % of control	171 ± 26^a % of control	–	–	2 µM	virtually identical
